Assays:
Assay type in all cases: physicochemical
[1] = Breakdown voltage, alternating current 50 Hz, method 2 (ramp 1000 V/30 s, asymmetric point/disc electrodes); parameters: unit not given here; conditions: 50 Hz AC, 1000V every 30 s, point ø 0,6, disc ø 39,6, mean (extreme values)
Source text: (§1) Nous avons comparé différents liquides par la mesure de leur tension de claquage en courant alternatif 50 Hz dans les 2 conditions suivantes (méthodes 1 et 2) : • 1 - rampe 2000 V/s - électrodes dissymétriques. • pointe diamètre 0,6 mm • disque à bords arrondis Rogowski, diamètre 39,6 mm • distance interélectrode = 3,2 mm • 2 - rampe 1000 V/30s - électrodes dissymétriques • pointe diamètre 0,6 mm • disque diamètre 39,6 mm • distance 3,2-10-15-20 mm

[2] = Crystallisation of the dielectric liquids at low temperature and on storage; conditions: for cristallise: general description, products prepared from orthoxylene
Source text: Cristallisation du produit XXO1 de l'exemple 1, du produit XX02 de l'exemple 1, et d'un mélange de 85 % en poids de XXO1 et 15 % en poids de XX02 (voir exemple 1) qu'on appelle XX05.
On effectue les mêmes essais que dans l'exemple 3 mais avec des produits XX01 et XX02 préparés comme dans l'exemple 1 sauf qu'on utilise un mélange de 75 % d'orthoxylène et 25 % de paraxylène ou bien de 100 % d'orthoxylène.

[3] = Breakdown voltage, alternating current 50 Hz, method 1 (ramp 2000 V/s, asymmetric point/disc electrodes); conditions: 50 Hz AC, point ø 0,6 mm, disc ø 39,6 mm, inter-electrode distance 3,2 mm, mean (extreme values)
Source text: as §1

tension de claquage ([1]; inter-electrode distance 3,2 mm)	tension de claquage ([1]; inter-electrode distance 10 mm)	tension de claquage ([1]; inter-electrode distance 15 mm)	tension de claquage ([1]; inter-electrode distance 20 mm)	Cristallisation ([2]; Example 3, products of Example 1 (from orthoxylene))	cristallise [2]	tension de claquage [3]	Substance
41,2 (37,7-45,3) (5)	69,5 (65,3-75,8) (5)	82,4 (74-89) (5)	93,8 (90,0-105,0) (5)	-40 °C	-40 °C	–	(méthylbenzyl)xylène [XX01]
–	–	–	–	–	solide à la température ambiante	–	di(méthylbenzyl)xylène
–	–	–	–	–	–	39,0 (34,9-44,4) (10)	dodécylbenzène ramifié [DDB]
